Data reported in BindingDB's records for doi:10.7270/Q2W66J6B (Sanford-Burnham Center For Chemical Genomics, 2009).

Target: T1, Dual specificity protein phosphatase 6 (Rattus norvegicus, UniProt Q64346)
T1 sequence (Q64346 whole entry): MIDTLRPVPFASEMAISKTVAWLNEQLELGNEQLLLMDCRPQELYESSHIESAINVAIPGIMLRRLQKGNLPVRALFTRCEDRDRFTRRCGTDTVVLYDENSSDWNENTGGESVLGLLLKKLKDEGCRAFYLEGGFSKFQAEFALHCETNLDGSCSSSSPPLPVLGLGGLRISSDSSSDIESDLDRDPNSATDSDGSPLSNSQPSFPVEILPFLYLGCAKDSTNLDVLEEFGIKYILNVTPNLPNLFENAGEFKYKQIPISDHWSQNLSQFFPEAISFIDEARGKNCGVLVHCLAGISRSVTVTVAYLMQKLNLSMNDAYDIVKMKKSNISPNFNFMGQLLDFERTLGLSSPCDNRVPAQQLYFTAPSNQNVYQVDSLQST
Assay: MKP-3 phosphatase inhibitors, primary screen, biochemical, rat enzyme, in vitro (AID 425)

Row | SMILES | IC50 [µM]
1 | Cc1ccc(NC(=O)CN2C(=O)C(=NNC(=O)c3cc([N+](=O)[O-])ccc3O)c3ccccc32)cc1 | 31
2 | CCOc1cc(CN=Nc2nc(O)c(CC(=O)O)s2)ccc1OCc1ccc(Cl)cc1Cl [2-[2-[(N''E)-N''-[4-(2,4-dichlorobenzyl)oxy-3-ethoxy-benzylidene]hydrazino]-4-keto-2-thiazolin-5-yl]acetic acid] | 25.6
3 | O=NCc1cccn1-c1cccc(C(=O)O)c1 [3-[2-(hydroximinomethyl)pyrrol-1-yl]benzoic acid] | 10
4 | CCN(CC)CCCN1C(=O)C(=O)C(C(=O)c2ccccc2)C1c1ccccn1 (stereo unspecified) [(4E)-1-[3-(diethylamino)propyl]-4-[hydroxy(phenyl)methylidene]-5-(2-pyridinyl)pyrrolidine-2,3-dione] | 100
5 | Cc1cc(=O)oc2cc(OCC(=O)N/N=C/C3C=C([N+](=O)[O-])C=CC3=O)ccc12 (stereo unspecified) [MLS000588734] | 24
6 | COC1=CC=CC(/C=N/NC(=O)c2cc3cc([N+](=O)[O-])ccc3s2)C1=O (stereo unspecified) [SMR000237814] | 116
